Source: patent US20160193240A1, “Ulmoside-A: Useful For Prevention Or Cure Of Metabolic Diseases” (COUNCIL OF SCIENTIFIC & INDUSTRIAL RESEARCH, priority 2013, published 2016)

Assays:
[1] = biological target: T1, AdipoR2 (Homo sapiens, UniProt Q86V24); assay: Radio-ligand saturation binding assay with 125I-ULMA, CHO cells transfected with AdipoR2
T1 construct: expressed in transfected cells; host or cells: Chinese Hamster Ovary cells (ECACC 85050302), transient transfection with Lipofectamine LTX
T1 sequence (Q86V24 1-386): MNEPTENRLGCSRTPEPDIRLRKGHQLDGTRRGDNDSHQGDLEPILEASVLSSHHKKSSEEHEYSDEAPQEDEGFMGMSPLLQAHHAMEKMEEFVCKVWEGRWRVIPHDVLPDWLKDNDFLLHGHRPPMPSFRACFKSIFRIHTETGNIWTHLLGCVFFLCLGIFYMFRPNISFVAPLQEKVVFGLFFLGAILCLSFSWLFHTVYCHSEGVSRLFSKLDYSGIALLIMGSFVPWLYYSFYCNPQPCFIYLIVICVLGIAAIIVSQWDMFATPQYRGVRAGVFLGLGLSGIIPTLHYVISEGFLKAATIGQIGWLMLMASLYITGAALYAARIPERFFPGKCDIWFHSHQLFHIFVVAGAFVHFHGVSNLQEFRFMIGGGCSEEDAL
Method: D. CHO cells transfected with empty vector or AdipoR1 or R2 expression vectors were incubated with various concentrations of ^125I-ULMA for 2 h at 4° C. Following washes, cells were lysed and count per minute was analyzed in a gamma counter. 200 fold molar excess of unlabeled ULMA was used for each concentration of radiolabeled ULMA for determining nonspecific activity. Count per minutes were normalized with total cellular protein content followed by further normalization with non-specific activity and plotted. Data is mean±SEM from three experiments performed in triplicates.
Further validation of AdipoR-ULMA interaction and its quantitation was done using a radio-ligand saturation binding assay using ^125I-ULMA. ULMA was first radiolabeled using chloramines-T method. 10 μl of ^125I (20 MBq; BARC, Mumbai, India) was added to 100 μg GTDF in 5% acetic acid/methanol, then chloramine-T (Sigma, 4 μg in MilliQ H2O) was added, and the mixture was allowed to react at room temperature (24° C.) for 5 min. […] was used for protein estimation using standard Bradford assay and rest of the lysate was used for measuring radioactivity in a gamma-counter (Cole Palmer). The count per minute was normalized with protein concentration and was further normalized with non specific binding, which was determined for every concentration of ^125I-ULMA, using 200 fold molar excess of unlabeled ULMA.

[2] = test system: C2C12 myotubes; assay: Mitochondrial DNA content by QRT-PCR in C2C12 myotubes; assay type: cell-based, mouse; settings: 10 nM, 72 hours
Method: D. ULMA increases mitochondrial DNA content. C2C12 myotubes in 6 well plates were treated with vehicle (0.1% vol/vol DMSO) or 10 nM ULMA (in DMSO) for 72 h. Following which, total cellular DNA was isolated from these cells by standard procedure (using a genomic DNA isolation kit; Macherey Nagel; according to manufacturer's instructions) and the mitochondrial DNA content was measured by QRT-PCR based measurement of mitochondrial coxII (Mit-CoxII) and cytochrome b (Cytb) and normalized with genomic glycerol three phosphate dehydrogenase DNA level. Data represent mean±SEM from three independent experiments performed in triplicates. *p<0.05 as determined by two tailed unpaired student's t-test.
Adiponectin is also known to activate PGC-1α by indirectly deacetylating this protein through activation of sirt1 (M. Iwabu, T. Yamauchi, M. Okada-Iwabu, K. Sato, T. Nakagawa, M. Funata, M. Yamaguchi, S. Namiki, R. Nakayama, M. Tabata, H. Ogata, N. Kubota, I. Takamoto, Y. K. Hayashi, N. Yamauchi, H. Waki, M. Fukayama, I. Nishino, K. Tokuyama, K. Ueki, Y. Oike, S. Ishii, K. Hirose, T. Shimizu, K. Touhara, T. Kadowaki. Nature; 464(7293): 1313-1319. 2010), therefore PGC-1α acetylation status following ULMA treatment was checked in C2C12 cells. C2C12 myotubes plated in 10 cm dish were treated with vehicle (DMSO) or 10 nM ULMA in DMSO for 6 hours. […]

## O=C1c2c(cc(O)c([C@@H]3O[C@H](CO)[C@@H](O)[C@H](O)[C@H]3O)c2O)O[C@@H](c2ccc(O)c(O)c2)[C@@H]1O [ULMA, (2S,3S)-(+)-3′,4′,5,7-tetrahydroxydihydroflavonol-6-C-β-D-glucopyranoside]
[1]
  maximum binding (BMAX): 3950 fmol/mg of protein
[1]; 2 hours, ice cold, read-out: dissociation constant (Kd)
  Kd: 326 nM
[2]
  Cytochrome B (Cytb) DNA level: enhanced
  mitochondrial cytochrome oxidase II (COX-II) DNA level: enhanced
